The subject of this assay is gramineous weeds, broadleaf weeds, sedge weeds. The experiment in a line: Post-emergence test: stem and leaf treatment of potted weeds, fresh weight inhibition rate, synergy by Colby's equation. It is filed as in vivo. On the procedure:
The assessment on the synergistic effect of mixing two or more herbicidal active ingredients is determined based on the Colby's equation as described in “Calculation Synergistic and Antagonistic Response of Herbicide Combinations (Weeds 15/1 (1967), S. R. Colby)”.
Use stem and leaf treatment for potted grown plant (NY/T 1155.4-2006): fill a plastic pot (6 cm height, 9 cm diameter) with a quantity of soil and sow 15 to 20 seeds of monocotyledonous weeds and dicotyledonous weeds in the plastic pot, cover it with 0.5 to 1 cm thick of fine soil and then put it in greenhouse for cultivation. When weeds grow to the 2 to 4 leave stage, conduct the stem and leaf spray treatment with 1 mL herbicidal solution on each pot and repeat four times for each treatment and leave some pots untreated as control group. Keep the treated pots in a greenhouse for cultivation and observe the growing status of target weeds periodically. Conduct the visual test on the target weeds regarding the damage symptoms and growth inhibition effect after 21 days. Weigh up the fresh weight above the ground or plant fresh weight and evaluate the toxicity of the herbicidal formulation on target weeds based on the fresh weight inhibition rate of the target.
Prepare the following three formulations according to specific weight percentages: 1. Pyroxasulfone; 2. […] After that, dilute above formulations with water to obtain diluted formulations.
Conduct visual assessment the damage symptom and growth inhibition status of target weeds after 21 days. Weigh up the fresh weight above the ground and calculate the inhibition rate of fresh weight (%).
The assessment on the synergistic effect of mixing two or more herbicidal active ingredients is determined based on the Colby's equation as described in “Calculation Synergistic and Antagonistic Response of Herbicide Combinations (Weeds 15/1(1967), S. R. Colby)”.
Wherein, X represents Fresh Weight Inhibition Rate of Pyroxasulfone when applied alone at certain application rate against target weeds;

Experimental findings from patent publication US10499643B2, “Synergistic herbicidal composition and the method of controlling the growth of undesired plants” (JIANGSU ROTAM CHEMISTRY CO., LTD, priority 2016, dated 2019) are described below.

Take `Cn1nc(C(F)(F)F)c(CS(=O)(=O)C2=NOC(C)(C)C2)c1OC(F)F` [Pyroxasulfone, 3-[5-(difluoromethoxy)-1-methyl-3-(trifluoromethyl)pyrazol-4-ylmethylsulfonyl]-4,5-dihydro-5,5-dimethyl-1,2-oxazole]: the inhibition at 1 g/ha (post-emergence, Pyroxasulfone 1 g ai/ha alone, read-out: Herbicidal Activity % Experimental Data) worked out at 11%. Moreover, the inhibition at 5 g/ha (post-emergence, Pyroxasulfone 5 g ai/ha alone, read-out: Herbicidal Activity % Experimental Data) stood at 22%. For the same molecule, the inhibition at 10 g/ha (post-emergence, Pyroxasulfone 10 g ai/ha alone, read-out: Herbicidal Activity % Experimental Data) was found to be 40%. For the same molecule, the inhibition at 25 g/ha (post-emergence, Pyroxasulfone 25 g ai/ha alone, read-out: Herbicidal Activity % Experimental Data) turned out to be 49%. In addition, the inhibition at 50 g/ha (post-emergence, Pyroxasulfone 50 g ai/ha alone, read-out: Herbicidal Activity % Experimental Data) stood at 63%.
Turning to `COC(=O)c1sccc1S(=O)(=O)NC(=O)Nc1nc(C)nc(OC)n1` [Thifensulfuron methyl], the “Herbicidal Activity % Experimental Data” value by setting is: (Thifensulfuron methyl 1 g ai/ha alone) 0%; (Thifensulfuron methyl 5 g ai/ha alone) 15.5%; (Thifensulfuron methyl 10 g ai/ha alone) 31.2%; (Thifensulfuron methyl 25 g ai/ha alone) 55.1%; (Thifensulfuron methyl 50 g ai/ha alone) 60.3%.
